Data: patent US10610539B2, “Cardiac glycoside analogs and their use in methods for inhibition of viral infection” (priority 2013, dated 2020)

Key:
[1] = system: Human Foreskin Fibroblasts (HFFs); type: cell-based; details: for cell cycle progression after mimosine arrest: HFFs treated with mimosine 48 hours, washed, treated one day
Protocol: Flow Cytometry: 1×10^5 HFFs from infected-treated or untreated conditions were washed with cold PBS. Cells were suspended in 70% pre-cooled alcohol. Cells were permeabilized in −20° C. for at least 2 hours followed by centrifugation at 5000 rpm for 5 minutes. The supernatants were discarded and cells were washed with cold PBS three times. Cells were re-suspended in 500 ul PBS, propidium iodide was added to a final concentration of 20-50 μg/ml and cells were incubated at room temperature for at least 10 minutes before applying them on flow machine.
The differences between the MTT and trypan blue assay complicated the calculation of antiviral selectivity. […] After 3 day serum starvation cells were released from serum starvation, infected with Towne HCMV and treated with digitoxin or the cardiac glycoside ouabain for 24 hours. HFFs were stained with propidium iodide and subjected to cell cycle analysis by flow cytometry.

breast cancer patients = details: women with breast cancer taking digoxin vs. 34% not taking digitalis; cited from earlier work
[2] = system: Herpes Simplex Virus 1 (HSV1); details: reported; cited from earlier work
Towne HCMV = details: previously reported by the inventors; cited from earlier work

SMILES: Nc1nc(O)c2ncn(COC(CO)CO)c2n1 [GCV, ganciclovir]
- cell cycle progression after mimosine arrest [1]: allowed the cells to normally progress in the cell cycle

SMILES: C[C@H]1O[C@@H](O[C@H]2[C@@H](O)C[C@H](O[C@H]3[C@@H](O)C[C@H](O[C@H]4CC[C@@]5(C)[C@H](CC[C@@H]6[C@@H]5C[C@@H](O)[C@]5(C)[C@@H](C7=CC(=O)OC7)CC[C@]65O)C4)O[C@@H]3C)O[C@@H]2C)C[C@H](O)[C@@H]1O [digoxin]
- death rate (breast cancer patients): 6%
- inhibition of Herpes Simplex Virus 1 (HSV1) [2]: inhibit Herpes Simplex Virus 1 (HSV1) in nanomolar concentrations
- inhibition of Towne HCMV replication (Towne HCMV): potent inhibitors of Towne HCMV replication

SMILES: C[C@@H]1O[C@@H](O[C@H]2C[C@@H](O)[C@]3(CO)[C@H]4[C@H](O)C[C@]5(C)[C@@H](C6=CC(=O)OC6)CC[C@]5(O)[C@@H]4CC[C@]3(O)C2)[C@H](O)[C@H](O)[C@H]1O [ouabain]
- inhibition of Herpes Simplex Virus 1 (HSV1) [2]: inhibit Herpes Simplex Virus 1 (HSV1) in nanomolar concentrations
- cell cycle progression ([1]; HFFs released from 3 day serum starvation, infected with Towne HCMV, treated 24 hours): arrested HFFs in G1
- cell cycle progression after mimosine arrest [1]: could not relieve HFFs from cell cycle arrest induced by mimosine
- inhibition of Towne HCMV replication (Towne HCMV): potent inhibitors of Towne HCMV replication
